Assay results taken from patent US20170313669A1, “LACTONE COMPOUNDS AND METHODS OF MAKING AND USING SAME” (THE SCRIPPS RESEARCH INSTITUTE, priority 2015, published 2017).

Columns and labels:
mouse ABHD16A = target: T1, mouse ABHD16A (Mus musculus, UniProt Q9Z1Q2); assay: Competitive gel-based ABPP, mouse ABHD16A-transfected HEK293T proteome; assay type: biochemical; settings: 30 min, 37° C., then FP-rhodamine 2 μM
T1 construct: full-length cDNA of human ABHD16A (Open Biosystems Catalog # MHS6278-202758315) or murine ABHD16A (Open Biosystems Catalog # MMM1013-202760516); host or cells: HEK293T, transient, pCMV-SPORT6
T1 sequence (Q9Z1Q2 1-558): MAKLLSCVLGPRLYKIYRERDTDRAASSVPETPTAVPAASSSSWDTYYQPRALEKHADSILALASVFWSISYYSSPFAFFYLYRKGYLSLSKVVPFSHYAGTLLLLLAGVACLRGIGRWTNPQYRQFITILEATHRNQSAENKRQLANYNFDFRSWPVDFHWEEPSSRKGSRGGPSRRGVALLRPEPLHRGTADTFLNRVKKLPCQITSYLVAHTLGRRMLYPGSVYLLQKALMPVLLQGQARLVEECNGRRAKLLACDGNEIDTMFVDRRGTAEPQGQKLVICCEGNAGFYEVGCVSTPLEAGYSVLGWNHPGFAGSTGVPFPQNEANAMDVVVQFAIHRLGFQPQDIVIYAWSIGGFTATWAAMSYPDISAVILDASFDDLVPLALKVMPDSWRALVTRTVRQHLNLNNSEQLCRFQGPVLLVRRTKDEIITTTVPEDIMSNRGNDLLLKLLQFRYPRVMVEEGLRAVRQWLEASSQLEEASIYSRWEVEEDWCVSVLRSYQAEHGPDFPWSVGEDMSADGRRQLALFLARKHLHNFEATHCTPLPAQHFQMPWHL

[1] = test system: mouse peritoneal macrophages; assay: LPS-induced cytokine release from peritoneal macrophages; assay type: cell-based; settings: pre-treatment 1 μM, 4 h; LPS 5 μg/mL, 7 h
Procedure: All PS-lipase substrate assays were performed on either 18:0-18:2 PS (Avanti Catalog #840063) or 16:0-18:1 PS (Avanti Catalog #840034). 17:1 FFA (Sigma-Aldrich #H8896) was used an internal standard for substrate assays, as well as lipidomic analysis. 2-AG-d5 (Catalog #362162) and PGE2-d9 (Catalog #10581) were purchased from Cayman Chemicals. COLO205, MCF7, K562 and HEK293T cells were purchased from ATCC. All full-length cDNA constructs coding for serine hydrolases ABHD16A, and ABHD12 were purchased from Open Biosystems (GE Healthcare), and all primers were obtained from Integrated DNA Technologies. All DNA sequencing was performed by Eton Biosciences Inc. All cytokine analysis was done using single analyte ELISA kits purchased from R&D Systems, Mouse TNF-α (Catalog # DY410), Mouse IL-6 (Catalog # DY406), and Mouse IL-1β (Catalog # DY401). All tissue culture media and supplements (RPMI 1640, DMEM, and Trypsin) were purchased from Caisson Labs, and SILAC RPMI was purchased from Thermo Scientific. […]
Peritoneal macrophages were elicited and harvested from mice according to the standard protocols available from LIPID MAPS (See http://www.lipidmaps.org/protocols/PP0000001400.pdf and http://www.lipidmaps.org/protocols/PP0000001500.pdf). […] Cell counts measured using a Bio-Rad TC10 automated cell counter, and equal numbers of cells (2×10^6) were plated in 10 cm tissue culture dishes. […]

SMILES: CCCCCCCCCCCCCC1OC(=O)/C1=C\CCCCC(N)=O (centres unmarked) [KC01, (Z)-6-(2-oxo-4-tridecyloxetan-3-ylidene)hexanamide]
- IC50 (mouse ABHD16A): ~500 nM
- LPS-induced cytokine release [1]: significantly blunted
